Laboratory results from the OPERA property sets (Mansouri et al. 2018).

Conditions: for log10 BCF / log10 biotransformation half-life (days): fish

SMILES | melting point [°C] | boiling point [°C] | further results
C=C1CC[C@@]2(O)[C@H]3Cc4ccc(O)c5c4[C@@]2(CCN3CC2CC2)[C@H]1O5 | 189 |  | 
CNC1CCCCC1 |  | 147 | 
Clc1cc2c(Cl)ccc(Cl)c2c(Cl)c1Cl |  |  | log10 Koa: 9.1; log10 vapour pressure (mmHg): -6
CC(C)NC(C)C | -61 | 83.9 | log10 vapour pressure (mmHg): 1.9
Cc1cccc(C(=O)O)c1S(=O)(=O)NC(=O)Nc1nc(OCC(F)(F)F)nc(N(C)C)n1 | 162 |  | 
COC(=O)c1cccc(I)c1 | 54.5 | 277 | 
Cc1cc(C(C)(C)C)c(O)c(C)c1CC1=NCCN1 | 182 |  | 
Nc1ccc(Sc2ccc([N+](=O)[O-])cc2)cc1 | 144 |  | 
CC1(c2ccccc2)OC(C(=O)O)=CC1=O (stereo unspecified) | 176 |  | 
Cc1ccccc1CC=O |  | 221 | 
Clc1cc2c(c(Cl)c1Cl)Oc1c(cc(Cl)c(Cl)c1Cl)O2 | 243 |  | log10 Koa: 11; log10 vapour pressure (mmHg): -10.3; log10 BCF: 3.92; log10 biotransformation half-life (days): 1.3
CCc1cccc(C)c1N(COC(C)C)C(=O)CCl | 21.6 |  | log10 vapour pressure (mmHg): -4.52
O=C(O)c1cccs1 | 130 |  | 
C=CCC(C)CCC (stereo unspecified) |  | 113 | 
O=C(c1ccccc1)c1ccc([N+](=O)[O-])cc1 | 138 |  | 
O=[N+]([O-])c1c(Cl)c(Cl)cc(Cl)c1Cl | 99.5 | 304 | log10 Koc (L/kg): 4.05; log10 vapour pressure (mmHg): -2.74; log10 BCF: 3.23; log10 biotransformation half-life (days): 0.49
O=C(Nc1ccc(Br)cc1)c1c(O)cccc1O | 229 |  | 
COC(=O)C(C)Oc1ccc(Oc2ccc(Cl)cc2Cl)cc1 (stereo unspecified) | 40 |  | log10 Koc (L/kg): 4.2; log10 vapour pressure (mmHg): -5.46; ready biodegradability: readily biodegradable
CC(=O)c1ccc(O)c(O)c1 | 116 |  | 
CCCCCCCCCCCCCCCCCCC | 32.1 | 330 | log10 biodegradation half-life (days): 1.26; log10 vapour pressure (mmHg): -4.31; ready biodegradability: readily biodegradable
CCCCCCCCCCCCCCCCCC(=O)OCC(O)CO (stereo unspecified) | 74 |  | ready biodegradability: readily biodegradable
Cc1ccc(Cc2ccccc2)cc1 | -30 | 286 | 
Cc1ccccc1Oc1ccccc1 | 21.7 | 264 | 
Clc1ccc(Oc2ccccc2Cl)c(Cl)c1 |  |  | log10 vapour pressure (mmHg): -3.73
OCC1OC(O)C(O)C(O)C1O (stereo unspecified) |  |  | ready biodegradability: readily biodegradable

SMILES | melting point [°C] | boiling point [°C] | further results
CCOC(=O)[N-]c1c[n+](N2CCOCC2)no1 | 140 |  | 
C=C1CC(=O)O1 | -6.5 | 126 | log10 vapour pressure (mmHg): 1.03; ready biodegradability: readily biodegradable
Nc1cccc(S(=O)(=O)c2cccc(N)c2)c1 | 172 |  | ready biodegradability: not readily biodegradable
C[C@@H](O)CC(=O)O | 47.5 |  | 
Cc1ccccc1NC(=O)c1ccccc1 | 146 |  | 
c1ccc(OCC2CO2)cc1 (stereo unspecified) | 3.5 | 245 | log10 vapour pressure (mmHg): -2; ready biodegradability: not readily biodegradable
CCC(=O)N(CC)CC |  | 191 | 
C1CC2C3CCC(C3)C2C1 (stereo unspecified) |  |  | log10 biodegradation half-life (days): 3
Oc1ccccc1-c1ccccc1 | 59 | 286 | log10 vapour pressure (mmHg): -2.7; ready biodegradability: readily biodegradable
CC(Cl)(Cl)C(=O)Cl |  | 118 | 
CCCCCCCCCCOc1c(OC)cc(C(N)=O)cc1OC | 122 |  | 
Cc1ccc(C(=O)O)o1 | 110 |  | 
N#Cc1cc(Br)c(O)c(Br)c1 | 190 |  | log10 vapour pressure (mmHg): -7.33; ready biodegradability: readily biodegradable
CC(=O)OCC(=O)[C@@]12N=C(C)O[C@@H]1C[C@H]1[C@@H]3CCC4=CC(=O)C=C[C@]4(C)[C@H]3[C@@H](O)C[C@@]12C | 256 |  | 
COc1ccc(-c2ccccc2)cc1 | 90 |  | 
C=CCCCCCCCCCO | -2 | 250 | 
CCCC(C)(C)C(C)CC (stereo unspecified) |  | 161 | 
CCCC(C)C(=O)Nc1ccc(C)c(Cl)c1 (stereo unspecified) | 85 |  | log10 Koc (L/kg): 2.76
CCCOc1ccccc1 | -27 | 190 | 
O=C(OCC(=O)N1CCOCC1)c1ccccc1 | 104 |  | 
CCC(C)(C)CC | -135 | 86 | log10 biodegradation half-life (days): 0.954; log10 vapour pressure (mmHg): 1.92
CN(C)P(=O)(OP(=O)(N(C)C)N(C)C)N(C)C | 17 |  | log10 vapour pressure (mmHg): -3
CNc1ccccc1C(=O)O | 180 |  | ready biodegradability: readily biodegradable
Cc1cnc2c(C(=O)O)c(Cl)ccc2c1 | 244 |  | 
COc1ccc(NC(=O)N(C)C)cc1Cl | 126 |  | log10 Koc (L/kg): 1.72

SMILES | melting point [°C] | boiling point [°C] | further results
CCCCCCC(C(=O)OCC)C(=O)OCC |  | 269 | 
Clc1cccc(-c2c(Cl)cc(Cl)cc2Cl)c1 |  |  | log10 Henry constant (atm·m³/mol): -3.68
CN(C)c1ccc(N=Nc2ccccc2)cc1 | 117 |  | log10 Koc (L/kg): 3.87; log10 vapour pressure (mmHg): -7.15
Oc1ccc(O)c(O)c1 | 140 |  | 
CC(C)COC(OCC(C)C)OCC(C)C |  | 223 | 
COc1cc(C(=O)N2CCOCC2)cc(OC)c1OC | 121 |  | 
Clc1ccc2oc3c(Cl)c(Cl)c(Cl)c(Cl)c3c2c1 | 178 |  | log10 vapour pressure (mmHg): -8.44
ClCC1C(CCl)C2(Cl)C(Cl)=C(Cl)C1(Cl)C2(Cl)Cl (stereo unspecified) | 105 |  | 
Brc1cc(Br)c(Oc2cc(Br)c(Br)cc2Br)cc1Br |  |  | logP: 7.9; log10 BCF: 6.13
OCC(F)F | -28.2 | 95.5 | 
N#CCCCOc1ccccc1 | 45.5 | 288 | 
COc1nccnc1N(C(C)=O)S(=O)(=O)c1ccc(N)cc1 | 199 |  | 
CCCc1ccccc1N |  | 226 | 
C=C(Cl)c1ccccc1 | -23 | 199 | 
Cn1cccc1-c1cccnc1 |  | 281 | 
COC(=O)c1c(Cl)c(Cl)c(C(=O)OC)c(Cl)c1Cl | 155 | 365 | log10 Koc (L/kg): 3.7; log10 vapour pressure (mmHg): -5.6; ready biodegradability: not readily biodegradable
CC[N+](C)(CC)CCOC(=O)C1c2ccccc2Oc2ccccc21.[Br-] | 174 |  | 
CCC(Br)(CC)C(=O)NC(N)=O | 118 |  | 
CCc1ssc(=O)c1-c1ccccc1 | 82 |  | 
CCC(=O)CC(C)CC (stereo unspecified) |  | 159 | ready biodegradability: readily biodegradable
COc1ccc2cc1Oc1ccc(cc1)C[C@H]1c3cc(c(OC)cc3CCN1C)Oc1c(OC)c(OC)cc3c1[C@H](C2)N(C)CC3 | 218 |  | 
Cc1ccc(S(=O)(=O)c2ccc(C)cc2)cc1 | 159 | 406 | 
C1CC2CCC1CC2 |  |  | log10 vapour pressure (mmHg): 0.523
O=C1CC[C@@]2(O)[C@H]3Cc4ccc(O)c5c4[C@@]2(CCN3CC2CC2)[C@H]1O5 | 169 |  | 
Cc1cc(N)ccc1N | 64 | 274 | 

SMILES | melting point [°C] | boiling point [°C] | further results
NC(=O)Nc1ccc(Oc2ccccc2)cc1 |  |  | log10 Koc (L/kg): 2.56
CC=CC(OCC)OCC |  | 148 | 
Clc1c(Cl)c(Cl)c2nccnc2c1Cl | 190 |  | 
O=C(c1cc(O)c(O)c(O)c1)c1ccc(O)c(O)c1O | 270 |  | 
c1ccc2c(c1)CCO2 | -21.5 | 188 | 
FC(F)(F)C(F)(C(F)(F)F)C(F)(F)F |  | 0 | 
CCCC(N)=O | 115 | 216 | log10 vapour pressure (mmHg): -2.41
Oc1ccc(Cl)c2cccnc12 | 130 |  | 
CCC1CCC1 | -143 | 70.8 | 
Nc1ccc(F)cc1F | -7.5 | 170 | 
OC[C@H]1O[C@@](CO)(O[C@H]2O[C@H](CO)[C@@H](O)[C@H](O)[C@H]2O)[C@@H](O)[C@@H]1O | 186 |  | 
CCCCCCCCCCCC1=C(O)C(=O)C=C(O)C1=O | 142 |  | 
Clc1ccc(-c2c(Cl)c(Cl)cc(Cl)c2Cl)c(Cl)c1 |  |  | log10 Henry constant (atm·m³/mol): -4.29
CCCCCCCCCCCCCC[N+](C)(C)C.[Br-] | 248 |  | 
CN(C)C(=O)Nc1cccc(C(F)(F)F)c1 | 164 |  | log10 Koc (L/kg): 1.9; log10 vapour pressure (mmHg): -6.03
CN1C(=O)c2ccc([N+](=O)[O-])cc2C1=O |  | 361 | 
CC(C)=C1OC(=O)C1(C)C | -18 | 170 | 
CCCCCCCCCCC#N |  | 253 | 
Cc1ncc2n1-c1ccc(Cl)cc1C(c1ccccc1F)=NC2 | 159 |  | 
C=CCOC(=O)OCC=C |  | 142 | log10 vapour pressure (mmHg): -0.991
COc1cc(C(=O)OCCCN(C)CCN(C)CCCOC(=O)c2cc(OC)c(OC)c(OC)c2)cc(OC)c1OC | 76 |  | 
NCC(=O)O |  |  | ready biodegradability: readily biodegradable
O=C=Nc1ccccc1[N+](=O)[O-] | 41 |  | 
CCCCCCCCCCO | 6.9 | 231 | log10 Henry constant (atm·m³/mol): -4.49; log10 Koc (L/kg): 2.59; log10 vapour pressure (mmHg): -2.07; ready biodegradability: readily biodegradable
c1ccc2ncncc2c1 | 48 | 241 | 

SMILES | melting point [°C] | boiling point [°C] | further results
Cc1ccc2cc(C)ccc2c1 | 112 | 262 | log10 vapour pressure (mmHg): -2.37
O=C(Nc1ccccc1)c1ccccc1I | 137 |  | log10 Koc (L/kg): 2.82
C=CC(=C)Cl | -130 | 59.4 | log10 vapour pressure (mmHg): 2.33
Cc1cc2cccc(CCCC(C)C)c2cc1C |  |  | log10 biotransformation half-life (days): 0.06
CC(C)c1ccc(NC(=O)N(C)C)cc1 | 158 |  | log10 vapour pressure (mmHg): -7.61
CN(C)CCCOc1nn(Cc2ccccc2)c2ccccc12.Cl | 160 |  | 
CC(=O)Nc1ccc(OCC(O)CNC(C)C)cc1 (stereo unspecified) | 135 |  | 
O=C(O)c1cc(Cl)c(Cl)c(Cl)c1Cl | 194 |  | 
Clc1cc2oc3c(Cl)c(Cl)ccc3c2cc1Cl | 195 |  | log10 vapour pressure (mmHg): -7.68; log10 BCF: 2.72
CC(C)=CCCC(C)CCO (racemic) |  | 224 | 
ClC(Cl)c1ccccc1 | -17 | 205 | log10 vapour pressure (mmHg): -0.328; ready biodegradability: readily biodegradable
CC(C)C1=CC[C@H]2C(=C1)CC[C@@H]1[C@]2(C)CCC[C@@]1(C)C(=O)O | 150 |  | 
COC(=O)Nc1ccccc1 |  |  | log10 Koc (L/kg): 1.73
CCC(C)(C)c1cc(C)cc(C(C)(C)CC)c1O |  | 283 | 
C#CC(=O)O | 9 |  | 
N#C[C@H](O[C@@H]1O[C@H](CO[C@@H]2O[C@H](CO)[C@@H](O)[C@H](O)[C@H]2O)[C@@H](O)[C@H](O)[C@H]1O)c1ccccc1 | 224 |  | 
CCCC(=O)N(C)C | -40 | 186 | 
CCOCC(=O)O |  | 206 | 
C=C(c1ccccc1)c1ccccc1 | 8.2 | 277 | log10 vapour pressure (mmHg): -1.88
CCC(N)(CO)CO | 37.5 |  | ready biodegradability: not readily biodegradable
C=CC(=O)NC(C)(C)C | 128 |  | 
CCCCSP(SCCCC)SCCCC | 100 |  | 
